16 compounds from PubChem BioAssay AID200 (DTP/NCI, 2004) can be followed below.

Values joined by “and” are separate entries in the source; they are usually repeats but may differ in a detail not shown here. Identical values can stand only once. Inconclusive results and toxic doses are left out.

This experiment deals with B6C3F1 mice, B16 melanoma ip, median survival T/C. Put plainly: NCI In Vivo Anticancer Drug Screen. Data for tumor model B16 Melanoma (intraperitoneal) in B6C3F1 mice. The settings on record: endpoint: median survival time, schedule: Q01DX009 (ip), higher = longer survival. In short, it runs like this:
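Readout: survival or tumor size in treated mice relative to vehicle controls (T/C). Model uses transplantable tumors grown in mice.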

Where [1] appears, read: dose: 12.5 mg/kg/injection, vehicle: saline.
Where [2] appears, read: dose: 12.5 mg/kg/injection, vehicle: suspension in saline.
[3] abbreviates: dose: 25.0 mg/kg/injection, vehicle: saline.
Where [4] appears, read: dose: 50.0 mg/kg/injection, vehicle: saline.
Setting [5] is: dose: 100.0 mg/kg/injection, vehicle: saline.
The mark [6] stands for this setting: dose: 25.0 mg/kg/injection, vehicle: saline with Tween-80.
Where [7] appears, read: dose: 50.0 mg/kg/injection, vehicle: saline with Tween-80.
Where [8] appears, read: dose: 100.0 mg/kg/injection, vehicle: saline with Tween-80.
[9] abbreviates: dose: 200.0 mg/kg/injection, vehicle: saline with Tween-80.
The mark [10] stands for this setting: dose: 100.0 mg/kg/injection, vehicle: Klucel (hydroxypropylcellulose) (HPC).
Where [11] appears, read: dose: 200.0 mg/kg/injection, vehicle: saline.

In the case of `CCOC(=O)C1=C(C#N)C2(CCC(OCc3ccccc3)CC2)C(=O)O1` (stereo not drawn), the T/C by setting is: under setting [1], 105 % of control; under setting [2], 105 % of control; under setting [3], 101 % of control; (dose: 25.0 mg/kg/injection, vehicle: suspension in saline) 96 % of control; under setting [4], 94 % of control; (dose: 50.0 mg/kg/injection, vehicle: suspension in saline) 107 % of control. The T/C runs as follows: under setting [5], 111 % of control; (dose: 100.0 mg/kg/injection, vehicle: suspension in saline) 109 % of control; (dose: 200.0 mg/kg/injection, vehicle: suspension in saline) 107 % of control.

Consider `CCOC(=O)Nc1cc2c(c(N)n1)N=C(c1ccc3ccccc3c1)CN2`, for which the T/C is 97 % of control (dose: 0.5 mg/kg/injection, vehicle: saline with Tween-80); 110 % of control (dose: 1.0 mg/kg/injection, vehicle: saline with Tween-80); 101 % of control (dose: 1.44 mg/kg/injection, vehicle: saline with Tween-80); 113 % of control and 116 % of control (dose: 2.0 mg/kg/injection, vehicle: saline with Tween-80); 106 % of control (dose: 2.4 mg/kg/injection, vehicle: saline with Tween-80); 109 % of control and 122 % of control and 107 % of control (dose: 4.0 mg/kg/injection, vehicle: saline with Tween-80). For the same compound, the T/C runs as follows: (dose: 6.67 mg/kg/injection, vehicle: saline with Tween-80) 113 % of control; (dose: 8.0 mg/kg/injection, vehicle: saline with Tween-80) 119 % of control; (dose: 11.12 mg/kg/injection, vehicle: saline with Tween-80) 119 % of control.

`CCOC(=O)C(C)(C)Oc1ccc(Cl)cc1`: the T/C by setting is: (dose: 12.5 mg/kg/injection, vehicle: saline with Tween-80) 93 % of control and 105 % of control; under setting [6], 93 % of control and 102 % of control; under setting [7], 93 % of control and 101 % of control; under setting [8], 102 % of control and 104 % of control; under setting [9], 90 % of control.

For `CCCCCCCCCCCCCCCC(=O)OCC1OC(n2ccc(N)nc2=O)C(O)C1O` (stereo not drawn), the T/C reads like this: (dose: 3.75 mg/kg/injection, vehicle: saline with Tween-80) 117 % of control; (dose: 7.5 mg/kg/injection, vehicle: saline with Tween-80) 113 % of control and 121 % of control.

Consider `Nc1ccc(Cl)c2ccccc12`, for which the T/C is 99 % of control under setting [6], 103 % of control under setting [7] and 109 % of control under setting [8].

`CC(C)NC(=O)OCc1c(COC(=O)NC(C)C)c(-c2ccc(Cl)c(Cl)c2)n2c1CCC2`: the T/C was 115 % of control (dose: 2.5 mg/kg/injection, vehicle: Klucel (hydroxypropylcellulose) (HPC)); 158 % of control (dose: 5.0 mg/kg/injection, vehicle: Klucel (hydroxypropylcellulose) (HPC)); 159 % of control (dose: 5.0 mg/kg/injection, vehicle: saline with Tween-80); 166 % of control and 169 % of control and 176 % of control (dose: 6.25 mg/kg/injection, vehicle: distilled water + Tween-80); 153 % of control and 175 % of control (dose: 10.0 mg/kg/injection, vehicle: Klucel (hydroxypropylcellulose) (HPC)); 196 % of control (dose: 10.0 mg/kg/injection, vehicle: saline with Tween-80). The T/C reads like this: (dose: 20.0 mg/kg/injection, vehicle: Klucel (hydroxypropylcellulose) (HPC)) 209 % of control; (dose: 20.0 mg/kg/injection, vehicle: saline with Tween-80) 191 % of control; (dose: 40.0 mg/kg/injection, vehicle: Klucel (hydroxypropylcellulose) (HPC)) 235 % of control and 256 % of control; (dose: 40.0 mg/kg/injection, vehicle: saline with Tween-80) 251 % of control; (dose: 80.0 mg/kg/injection, vehicle: saline with Tween-80) 89 % of control.

With `CC(C)(C)OC(=O)NC(CC(=O)OCc1ccccc1)C(=O)ON1C(=O)CCC1=O` (stereo not drawn), the T/C (dose: 25.0 mg/kg/injection, vehicle: Klucel (hydroxypropylcellulose) (HPC)) was 93 % of control; the T/C (dose: 50.0 mg/kg/injection, vehicle: Klucel (hydroxypropylcellulose) (HPC)) was 91 % of control; the T/C under setting [10] is 95 % of control.

For the compound `CN(CCN(C)C(=O)CCOS(C)(=O)=O)C(=O)CCOS(C)(=O)=O`, the T/C reads like this: under setting [1], 113 % of control; under setting [3], 161 % of control; under setting [4], 203 % of control and 219 % of control; under setting [5], 213 % of control and 263 % of control; under setting [11], 102 % of control.

Turning to `COc1ccc2c(c1)-c1nn(CCCN(C)C)c3ccc([N+](=O)[O-])c(c13)N2`, the T/C is, setting by setting: (dose: 1.56 mg/kg/injection, vehicle: water) 110 % of control; (dose: 3.12 mg/kg/injection, vehicle: water) 116 % of control and 122 % of control.

Turning to `COc1ccc(N=C(C)C2C(=O)c3ccccc3C2=O)cc1`, the T/C is, setting by setting: (dose: 50.0 mg/kg/injection, vehicle: DMSO) 103 % of control; (dose: 100.0 mg/kg/injection, vehicle: DMSO) 103 % of control; (dose: 200.0 mg/kg/injection, vehicle: DMSO) 105 % of control; (dose: 400.0 mg/kg/injection, vehicle: DMSO) 116 % of control; (dose: 800.0 mg/kg/injection, vehicle: DMSO) 97 % of control.

Consider `Nc1nc(-c2ccc(Cl)c([N+](=O)[O-])c2)c(Br)c(=O)[nH]1`, for which the T/C runs as follows: (dose: 18.25 mg/kg/injection, vehicle: saline with Tween-80) 121 % of control; (dose: 36.5 mg/kg/injection, vehicle: saline with Tween-80) 118 % of control; (dose: 73.0 mg/kg/injection, vehicle: saline with Tween-80) 100 % of control; (dose: 146.0 mg/kg/injection, vehicle: saline with Tween-80) 100 % of control.

For `c1cc(-c2cc3ccc(C4=NCCN4)cc3[nH]2)ccc1C1=NCCN1`, the T/C is, setting by setting: (dose: 3.12 mg/kg/injection, vehicle: saline) 111 % of control; (dose: 3.12 mg/kg/injection, vehicle: suspension in saline) 104 % of control; (dose: 6.25 mg/kg/injection, vehicle: saline) 108 % of control; (dose: 6.25 mg/kg/injection, vehicle: suspension in saline) 94 % of control; under setting [1], 100 % of control; under setting [2], 96 % of control. Also, the T/C under setting [3] is 95 % of control.

As for `CC(SC(C)C(=O)N/N=C/c1ccc(C#N)cc1)C(=O)N/N=C\c1ccc(C#N)cc1` (stereo not drawn), the T/C is 92 % of control under setting [7], 88 % of control under setting [8], 87 % of control under setting [9] and 88 % of control under setting [11].

Turning to `NC(=O)NC(CC(=O)O)C(=O)O` (stereo not drawn), the T/C is 113 % of control under setting [7], 95 % of control under setting [8] and 102 % of control under setting [9].

In the case of `CC(C)(C)OC(=O)NC(Cc1ccc(O)cc1)C(=O)O` (stereo not drawn), the T/C reads like this: under setting [10], 108 % of control; (dose: 200.0 mg/kg/injection, vehicle: Klucel (hydroxypropylcellulose) (HPC)) 103 % of control; (dose: 400.0 mg/kg/injection, vehicle: Klucel (hydroxypropylcellulose) (HPC)) 97 % of control.

As for `O=C(O)CSC(CC(=O)O)C(=O)O` (stereo not drawn), the T/C was 94 % of control under setting [3], 89 % of control under setting [4] and 94 % of control under setting [5].
